# Experimental data from the kinase profiling compilation of Christmann-Franck et al. (2016).
# Legend:
# Assay in all cases: KINOMEscan competition binding
# Conditions in all cases: compound 10.0 µM
# PIM3 (human) = PIM3 (human) (UniProt Q86V86)
# CSNK1D (human) = CSNK1D (human) (UniProt P48730)
# EPHA4 (human) = EPHA4 (human) (UniProt P54764)
# RPS6KA5 KD1 (human) = RPS6KA5 KD1 (human) (UniProt O75582)
# CDK9 (human) = CDK9 (human) (UniProt P50750)
# PIK3CG (human) = PIK3CG (human) (UniProt P48736)
# CSNK1G1 (human) = CSNK1G1 (human) (UniProt Q9HCP0)
# CHUK (human) = CHUK (human) (UniProt O15111)
# PDGFRB (human) = PDGFRB (human) (UniProt P09619)
# PIK3CA (human) = PIK3CA (human) (UniProt P42336)
# CDC42BPG (human) = CDC42BPG (human) (UniProt Q6DT37)
# MAP2K3 (human) = MAP2K3 (human) (UniProt P46734)
# ZAP70 (human) = ZAP70 (human) (UniProt P43403)
# MYLK2 (human) = MYLK2 (human) (UniProt Q9H1R3)
# PDPK1 (human) = PDPK1 (human) (UniProt O15530)
# MAP3K5 (human) = MAP3K5 (human) (UniProt Q99683)
# CLK1 (human) = CLK1 (human) (UniProt P49759)
# MST4 (human) = MST4 (human) (UniProt Q9P289)
# PTK6 (human) = PTK6 (human) (UniProt Q13882)
# STK36 (human) = STK36 (human) (UniProt Q9NRP7)
# MAPK6 (human) = MAPK6 (human) (UniProt Q16659)
# TAOK3 (human) = TAOK3 (human) (UniProt Q9H2K8)
# PIK3CB (human) = PIK3CB (human) (UniProt P42338)
# LCK (human) = LCK (human) (UniProt P06239)
# DCLK2 (human) = DCLK2 (human) (UniProt Q8N568)
# PTK2 (human) = PTK2 (human) (UniProt Q05397)
# CDK19 (human) = CDK19 (human) (UniProt Q9BWU1)
# CDK15 (human) = CDK15 (human) (UniProt Q96Q40)
# STK17B (human) = STK17B (human) (UniProt O94768)
# TTK (human) = TTK (human) (UniProt P33981)
# RPS6KA2 KD1 (human) = RPS6KA2 KD1 (human) (UniProt Q15349)
# Sequence of MST4 (human) (Q9P289 whole entry, looked up): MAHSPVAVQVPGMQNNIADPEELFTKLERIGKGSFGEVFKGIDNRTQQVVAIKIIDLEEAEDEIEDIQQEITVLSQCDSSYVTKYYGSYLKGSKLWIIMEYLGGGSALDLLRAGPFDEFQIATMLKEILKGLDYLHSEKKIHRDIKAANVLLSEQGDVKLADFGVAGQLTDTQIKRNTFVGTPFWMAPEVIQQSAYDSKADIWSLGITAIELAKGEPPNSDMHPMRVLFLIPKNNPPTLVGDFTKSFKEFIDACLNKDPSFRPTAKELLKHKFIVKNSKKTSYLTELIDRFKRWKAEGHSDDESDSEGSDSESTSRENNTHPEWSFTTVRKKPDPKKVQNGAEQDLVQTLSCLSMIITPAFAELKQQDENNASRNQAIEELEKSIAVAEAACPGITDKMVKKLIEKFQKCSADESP
# Sequence of CDC42BPG (human) (Q6DT37 whole entry, looked up): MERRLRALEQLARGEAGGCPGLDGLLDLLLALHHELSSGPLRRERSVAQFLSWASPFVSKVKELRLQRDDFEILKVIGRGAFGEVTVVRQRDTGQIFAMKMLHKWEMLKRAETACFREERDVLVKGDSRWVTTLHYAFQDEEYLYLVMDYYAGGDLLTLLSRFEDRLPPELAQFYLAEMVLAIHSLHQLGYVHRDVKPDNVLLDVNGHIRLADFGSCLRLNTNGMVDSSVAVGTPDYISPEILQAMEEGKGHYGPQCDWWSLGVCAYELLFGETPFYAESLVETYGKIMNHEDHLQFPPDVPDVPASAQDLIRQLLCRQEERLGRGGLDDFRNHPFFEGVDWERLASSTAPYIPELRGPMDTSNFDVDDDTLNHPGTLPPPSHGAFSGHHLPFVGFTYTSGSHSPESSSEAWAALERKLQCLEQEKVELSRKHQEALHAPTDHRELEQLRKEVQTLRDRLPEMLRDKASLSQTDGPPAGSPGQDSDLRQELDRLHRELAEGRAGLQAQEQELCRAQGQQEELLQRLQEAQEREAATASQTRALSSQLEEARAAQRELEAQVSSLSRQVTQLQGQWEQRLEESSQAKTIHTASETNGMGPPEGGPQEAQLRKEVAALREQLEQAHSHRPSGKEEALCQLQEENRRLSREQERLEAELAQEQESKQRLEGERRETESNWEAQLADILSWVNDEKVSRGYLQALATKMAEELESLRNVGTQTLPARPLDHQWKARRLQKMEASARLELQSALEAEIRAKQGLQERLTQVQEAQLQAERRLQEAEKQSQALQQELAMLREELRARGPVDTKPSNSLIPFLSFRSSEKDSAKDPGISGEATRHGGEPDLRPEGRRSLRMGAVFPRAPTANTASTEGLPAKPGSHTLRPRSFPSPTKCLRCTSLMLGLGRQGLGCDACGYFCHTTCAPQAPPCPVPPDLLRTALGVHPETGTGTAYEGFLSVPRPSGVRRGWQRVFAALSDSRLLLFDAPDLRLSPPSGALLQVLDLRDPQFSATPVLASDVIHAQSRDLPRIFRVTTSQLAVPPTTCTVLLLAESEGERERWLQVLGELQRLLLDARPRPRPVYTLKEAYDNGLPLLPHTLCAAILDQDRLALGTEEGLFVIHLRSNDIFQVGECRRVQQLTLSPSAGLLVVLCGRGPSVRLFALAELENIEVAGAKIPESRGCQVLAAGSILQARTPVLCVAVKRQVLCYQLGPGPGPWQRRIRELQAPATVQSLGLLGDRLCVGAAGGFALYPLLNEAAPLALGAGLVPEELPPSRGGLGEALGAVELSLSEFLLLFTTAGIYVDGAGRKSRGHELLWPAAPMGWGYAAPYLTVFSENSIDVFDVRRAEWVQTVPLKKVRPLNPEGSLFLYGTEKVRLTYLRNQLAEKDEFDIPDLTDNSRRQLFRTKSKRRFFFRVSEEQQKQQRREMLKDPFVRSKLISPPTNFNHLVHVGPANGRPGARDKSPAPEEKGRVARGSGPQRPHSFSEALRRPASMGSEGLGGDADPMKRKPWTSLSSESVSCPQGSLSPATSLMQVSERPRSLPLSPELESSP
# Sequence of MAP2K3 (human) (P46734 whole entry, looked up): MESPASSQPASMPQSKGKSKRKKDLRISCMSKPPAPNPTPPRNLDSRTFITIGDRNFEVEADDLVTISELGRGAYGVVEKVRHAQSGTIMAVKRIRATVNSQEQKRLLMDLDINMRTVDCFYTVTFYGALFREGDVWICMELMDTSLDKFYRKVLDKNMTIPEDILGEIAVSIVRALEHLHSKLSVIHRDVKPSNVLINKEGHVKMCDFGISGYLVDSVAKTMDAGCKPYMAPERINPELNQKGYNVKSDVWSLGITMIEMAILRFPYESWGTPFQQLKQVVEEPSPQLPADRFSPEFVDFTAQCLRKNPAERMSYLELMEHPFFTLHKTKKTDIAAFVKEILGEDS
# Sequence of PTK6 (human) (Q13882 whole entry, looked up): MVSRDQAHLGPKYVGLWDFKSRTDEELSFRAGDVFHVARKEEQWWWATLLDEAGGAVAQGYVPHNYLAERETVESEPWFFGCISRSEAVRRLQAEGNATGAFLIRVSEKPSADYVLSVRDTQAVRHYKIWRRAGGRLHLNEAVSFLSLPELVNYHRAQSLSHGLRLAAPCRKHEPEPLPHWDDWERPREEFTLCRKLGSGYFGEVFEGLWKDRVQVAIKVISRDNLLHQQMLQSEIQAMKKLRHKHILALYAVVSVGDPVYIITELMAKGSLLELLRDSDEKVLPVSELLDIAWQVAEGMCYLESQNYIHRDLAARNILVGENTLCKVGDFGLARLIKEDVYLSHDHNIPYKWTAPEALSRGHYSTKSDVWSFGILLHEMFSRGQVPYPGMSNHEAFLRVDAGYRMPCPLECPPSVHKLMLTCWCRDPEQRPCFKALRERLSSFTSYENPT
# Sequence of STK36 (human) (Q9NRP7 whole entry, looked up): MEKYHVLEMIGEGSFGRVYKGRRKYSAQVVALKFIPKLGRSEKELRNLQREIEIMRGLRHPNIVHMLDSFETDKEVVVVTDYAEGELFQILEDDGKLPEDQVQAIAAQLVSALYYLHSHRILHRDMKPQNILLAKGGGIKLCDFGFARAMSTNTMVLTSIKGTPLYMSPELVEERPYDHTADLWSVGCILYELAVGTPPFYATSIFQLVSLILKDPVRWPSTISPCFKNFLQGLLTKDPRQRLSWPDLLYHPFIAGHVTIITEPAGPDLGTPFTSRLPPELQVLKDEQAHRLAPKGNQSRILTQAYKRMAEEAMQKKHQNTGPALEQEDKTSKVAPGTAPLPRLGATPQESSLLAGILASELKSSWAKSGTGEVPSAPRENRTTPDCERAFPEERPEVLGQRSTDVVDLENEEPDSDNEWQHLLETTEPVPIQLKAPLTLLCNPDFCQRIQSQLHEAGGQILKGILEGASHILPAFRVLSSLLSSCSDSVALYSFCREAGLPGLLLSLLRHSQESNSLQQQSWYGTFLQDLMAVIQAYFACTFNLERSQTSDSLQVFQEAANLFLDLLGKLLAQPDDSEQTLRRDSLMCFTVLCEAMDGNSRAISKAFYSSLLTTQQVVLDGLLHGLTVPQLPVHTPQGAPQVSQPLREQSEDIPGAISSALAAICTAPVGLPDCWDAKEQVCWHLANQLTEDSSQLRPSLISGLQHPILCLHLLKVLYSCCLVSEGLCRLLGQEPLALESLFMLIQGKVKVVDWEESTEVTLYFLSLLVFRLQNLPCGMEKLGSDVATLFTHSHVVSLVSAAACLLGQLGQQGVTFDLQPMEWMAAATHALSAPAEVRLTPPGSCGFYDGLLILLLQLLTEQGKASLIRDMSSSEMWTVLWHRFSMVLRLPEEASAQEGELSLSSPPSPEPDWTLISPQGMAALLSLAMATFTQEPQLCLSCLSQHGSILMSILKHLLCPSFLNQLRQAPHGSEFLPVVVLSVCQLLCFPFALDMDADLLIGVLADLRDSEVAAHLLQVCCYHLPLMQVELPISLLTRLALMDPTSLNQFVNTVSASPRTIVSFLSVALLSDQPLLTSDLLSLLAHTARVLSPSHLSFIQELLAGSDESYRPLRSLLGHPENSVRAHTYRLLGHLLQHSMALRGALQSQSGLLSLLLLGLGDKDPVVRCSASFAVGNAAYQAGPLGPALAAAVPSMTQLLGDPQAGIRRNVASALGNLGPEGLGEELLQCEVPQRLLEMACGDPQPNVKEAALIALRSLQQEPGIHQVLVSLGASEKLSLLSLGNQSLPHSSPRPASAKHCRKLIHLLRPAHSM
# Sequence of TTK (human) (P33981 whole entry, looked up): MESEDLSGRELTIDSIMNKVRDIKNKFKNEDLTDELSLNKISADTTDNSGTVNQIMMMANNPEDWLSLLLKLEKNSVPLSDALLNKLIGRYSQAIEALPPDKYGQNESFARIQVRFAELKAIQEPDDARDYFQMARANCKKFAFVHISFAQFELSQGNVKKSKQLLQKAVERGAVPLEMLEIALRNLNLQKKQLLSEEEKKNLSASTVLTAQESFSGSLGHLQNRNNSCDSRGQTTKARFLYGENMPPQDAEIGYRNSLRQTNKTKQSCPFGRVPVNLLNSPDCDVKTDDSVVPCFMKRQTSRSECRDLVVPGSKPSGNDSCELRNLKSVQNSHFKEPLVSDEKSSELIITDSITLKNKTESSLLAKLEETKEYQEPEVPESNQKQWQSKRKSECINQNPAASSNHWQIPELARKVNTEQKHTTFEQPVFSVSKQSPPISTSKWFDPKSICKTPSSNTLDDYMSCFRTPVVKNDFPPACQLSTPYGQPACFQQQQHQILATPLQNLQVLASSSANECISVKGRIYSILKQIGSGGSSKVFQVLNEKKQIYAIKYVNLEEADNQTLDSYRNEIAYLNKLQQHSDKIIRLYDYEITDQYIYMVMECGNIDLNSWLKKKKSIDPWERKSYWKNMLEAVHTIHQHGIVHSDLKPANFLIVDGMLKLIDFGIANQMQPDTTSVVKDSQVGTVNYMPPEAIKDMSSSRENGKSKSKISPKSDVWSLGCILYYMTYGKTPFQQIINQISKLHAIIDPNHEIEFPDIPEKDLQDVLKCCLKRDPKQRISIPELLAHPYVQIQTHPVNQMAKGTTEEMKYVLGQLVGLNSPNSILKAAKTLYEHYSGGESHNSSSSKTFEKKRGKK
structure (smiles),measurement,setting,value
COc1cc(N2CCC(C(N)=O)CC2)ccc1Nc1nc(N)c(Cl)c(Nc2ccccc2S(=O)(=O)C(C)C)n1,"kinase still bound, per cent of control",PIM3 (human),100%
same,"kinase still bound, per cent of control",CSNK1D (human),100%
same,"kinase still bound, per cent of control",EPHA4 (human),100%
same,"kinase still bound, per cent of control",RPS6KA5 KD1 (human),100%
same,"kinase still bound, per cent of control",CDK9 (human),100%
same,"kinase still bound, per cent of control",PIK3CG (human),100%
same,"kinase still bound, per cent of control",CSNK1G1 (human),100%
same,"kinase still bound, per cent of control",CHUK (human),100%
same,"kinase still bound, per cent of control",PDGFRB (human),100%
same,"kinase still bound, per cent of control",PIK3CA (human),100%
same,"kinase still bound, per cent of control",CDC42BPG (human),100%
same,"kinase still bound, per cent of control",MAP2K3 (human),23%
same,"kinase still bound, per cent of control",ZAP70 (human),100%
same,"kinase still bound, per cent of control",MYLK2 (human),100%
same,"kinase still bound, per cent of control",PDPK1 (human),100%
same,"kinase still bound, per cent of control",MAP3K5 (human),100%
same,"kinase still bound, per cent of control",CLK1 (human),0.7%
same,"kinase still bound, per cent of control",MST4 (human),100%
same,"kinase still bound, per cent of control",PTK6 (human),3%
same,"kinase still bound, per cent of control",STK36 (human),100%
same,"kinase still bound, per cent of control",MAPK6 (human),100%
same,"kinase still bound, per cent of control",TAOK3 (human),100%
same,"kinase still bound, per cent of control",PIK3CB (human),100%
same,"kinase still bound, per cent of control",LCK (human),14%
same,"kinase still bound, per cent of control",DCLK2 (human),100%
same,"kinase still bound, per cent of control",PTK2 (human),0%
same,"kinase still bound, per cent of control",CDK19 (human),100%
same,"kinase still bound, per cent of control",CDK15 (human),100%
same,"kinase still bound, per cent of control",STK17B (human),100%
same,"kinase still bound, per cent of control",TTK (human),7%
same,"kinase still bound, per cent of control",RPS6KA2 KD1 (human),100%
COc1ccc(N(C(=O)Oc2cc(C(=O)Nc3cccc(C(F)(F)F)c3)ccc2C)c2ccnc(Nc3ccc(N4CCN(C)CC4)cc3)n2)c(OC)c1,"kinase still bound, per cent of control",PIM3 (human),100%
same,"kinase still bound, per cent of control",CSNK1D (human),100%
same,"kinase still bound, per cent of control",EPHA4 (human),2.4%
same,"kinase still bound, per cent of control",RPS6KA5 KD1 (human),100%
same,"kinase still bound, per cent of control",CDK9 (human),100%
same,"kinase still bound, per cent of control",CSNK1G1 (human),100%
same,"kinase still bound, per cent of control",PDGFRB (human),0.45%
same,"kinase still bound, per cent of control",PIK3CA (human),100%
same,"kinase still bound, per cent of control",CDC42BPG (human),100%
same,"kinase still bound, per cent of control",MAP2K3 (human),100%
same,"kinase still bound, per cent of control",ZAP70 (human),100%
same,"kinase still bound, per cent of control",MYLK2 (human),100%
same,"kinase still bound, per cent of control",PDPK1 (human),100%
same,"kinase still bound, per cent of control",MAP3K5 (human),100%
same,"kinase still bound, per cent of control",CLK1 (human),100%
same,"kinase still bound, per cent of control",MST4 (human),100%
same,"kinase still bound, per cent of control",PTK6 (human),4%
same,"kinase still bound, per cent of control",STK36 (human),1.2%
same,"kinase still bound, per cent of control",MAPK6 (human),100%
same,"kinase still bound, per cent of control",LCK (human),0.4%
same,"kinase still bound, per cent of control",DCLK2 (human),100%
same,"kinase still bound, per cent of control",PTK2 (human),4.6%
same,"kinase still bound, per cent of control",CDK19 (human),100%
same,"kinase still bound, per cent of control",STK17B (human),100%
same,"kinase still bound, per cent of control",TTK (human),100%
same,"kinase still bound, per cent of control",RPS6KA2 KD1 (human),100%
